Read-outs that look alike come from different tables or passages of the source. A value given as a limit tells only on which side of the number the result lay.

This passage reports IC50 results from patent US20260356817A1, “AMINOPYRIMIDINE AND AMINOTRIAZINE DERIVATIVES AS MYC PROTEIN MODULATORS” (Sanford Burnham Prebys Medical Discovery Institute, priority 2022, published 2026).

This test has as its system Myc. As to the kind of experiment: Myc inhibition assay: Myc expression per cell by anti-Myc immunofluorescence, high-content imaging. It counts as cell-based, human (patient-derived medulloblastoma xenograft cells). The settings on record: medulloblastoma PDX cells, 4 h. An excerpt: To identify Myc inhibitors, cells isolated from patient-derived orthotopic xenografts (PDXs) from patients with Myc-driven medulloblastoma were used. Specifically, PDX cells were propagated by transplantation directly into the cerebellum of immunodeficient (NSG) mice and were never passaged in vitro in order to maintain properties of the tumor from which they were derived. Tumor tissues were isolated from tumor-bearing animals, dissociated into a single-cell suspension, resuspended in serum-free media, and immediately plated in 384 well plates. After overnight recovery, compounds were added to each well, and cells were incubated for 4 hours before being fixed and stained with anti-Myc antibodies and with DAPI to label nuclei. Cells were then analyzed using high-content imaging to determine the levels of Myc expression per cell and IC50 values of the compounds.

Setting [1] is: Table 1, read-out: IC50 (Myc inhibition).
Where [2] appears, read: Table 2, read-out: MYC Inhibition IC50.

With `c1ccc(-n2cc(Nc3nccc(-c4ccc5[nH]cnc5c4)n3)cn2)nc1` [Compound 35, 4-(1H-benzo[d]imidazol-5-yl)-N-(1-(pyridin-2-yl)-1H-pyrazol-4-yl)pyrimidin-2-amine], the IC50 is, setting by setting: under setting [1], less than 200 nM; under setting [2], less than 200 nM.
On to `O=S(=O)(Nc1ccc(F)cc1)c1cccc(Nc2nccc(-c3ccc4[nH]cnc4c3)n2)c1` [Compound 36, 3-((4-(1H-benzo[d]imidazol-5-yl)pyrimidin-2-yl)amino)-N-(4-fluorophenyl)benzenesulfonamide], for which the IC50 is, setting by setting: under setting [1], 200 to 1000 nM; under setting [2], 200 to 1000 nM.
Turning to `c1ccc(Cn2cc(Nc3nccc(-c4ccc5[nH]cnc5c4)n3)cn2)cc1` [Compound 37, 4-(1H-benzo[d]imidazol-5-yl)-N-(1-benzyl-1H-pyrazol-4-yl)pyrimidin-2-amine], the concentration for half-maximal inhibition (IC50) by setting is: under setting [1], 200 to 1000 nM; under setting [2], 200 to 1000 nM.
Take `O=S(=O)(Nc1cccc(Nc2nccc(-c3ccc4[nH]cnc4c3)n2)c1)c1ccccc1` [Compound 38, N-(3-((4-(1H-benzo[d]imidazol-5-yl)pyrimidin-2-yl)amino)phenyl)benzenesulfonamide]: the 50% inhibitory concentration (IC50) fell in the range of 200 to 1000 nM under setting [1] and 200 to 1000 nM under setting [2].
As for `c1ccc(-n2cc(Nc3nccc(-c4ccc5[nH]cnc5c4)n3)cn2)cc1` [Compound 39, 4-(1H-benzo[d]imidazol-5-yl)-N-(1-phenyl-1H-pyrazol-4-yl)pyrimidin-2-amine], the IC50 runs as follows: under setting [1], less than 200 nM; under setting [2], less than 200 nM.
On to `Cc1cccc(Nc2nccc(-c3ccc4[nH]cnc4c3)n2)c1` [Compound 40, 4-(1H-benzo[d]imidazol-5-yl)-N-(m-tolyl)pyrimidin-2-amine], for which the IC50 under setting [1] fell in the range of 200 to 1000 nM and the IC50 under setting [2] fell in the range of 200 to 1000 nM.
For the molecule `Cn1cnc2ccc(-c3ccnc(Nc4cccc(C(F)(F)F)c4)n3)cc21` [Compound 41, 4-(1-methyl-1H-benzo[d]imidazol-6-yl)-N-(3-(trifluoromethyl)phenyl)pyrimidin-2-amine], the IC50 is, setting by setting: under setting [1], less than 200 nM; under setting [2], less than 200 nM.
On to `CNC(=O)c1cccc(Nc2nccc(-c3ccc4[nH]cnc4c3)n2)c1` [Compound 42, 3-((4-(1H-benzo[d]imidazol-5-yl)pyrimidin-2-yl)amino)-N-methylbenzamide], for which the IC50 is 200 to 1000 nM under setting [1] and 200 to 1000 nM under setting [2].
For the molecule `c1cc(Nc2nccc(-c3ccc4[nH]cnc4c3)n2)cc(-c2ccncc2)c1` [Compound 43, 4-(1H-benzo[d]imidazol-5-yl)-N-(3-(pyridin-4-yl)phenyl)pyrimidin-2-amine], the IC50 under setting [1] was less than 200 nM and the 50% inhibitory concentration (IC50) under setting [2] is less than 200 nM.
As to `c1ccc(-c2cccc(Nc3nccc(-c4ccc5[nH]cnc5c4)n3)c2)nc1` [Compound 44, 4-(1H-benzo[d]imidazol-5-yl)-N-(3-(pyridin-2-yl)phenyl)pyrimidin-2-amine], the half-inhibitory concentration (IC50) is less than 200 nM under setting [1] and less than 200 nM under setting [2].
For `c1cncc(-c2cccc(Nc3nccc(-c4ccc5[nH]cnc5c4)n3)c2)c1` [Compound 45, 4-(1H-benzo[d]imidazol-5-yl)-N-(3-(pyridin-3-yl)phenyl)pyrimidin-2-amine], the IC50 is less than 200 nM under setting [1] and less than 200 nM under setting [2].
Turning to `NS(=O)(=O)c1cccc(Nc2nccc(-c3ccc4[nH]cnc4c3)n2)c1` [Compound 46, 3-((4-(1H-benzo[d]imidazol-5-yl)pyrimidin-2-yl)amino)benzenesulfonamide], the half-inhibitory concentration (IC50) is less than 200 nM under setting [1] and less than 200 nM under setting [2].
For the molecule `COCCNc1cccc(Nc2nccc(-c3ccc4[nH]cnc4c3)n2)c1` [Compound 47, N^1-(4-(1H-benzo[d]imidazol-5-yl)pyrimidin-2-yl)-N^3-(2-methoxyethyl)benzene-1,3-diamine], the IC50 is, setting by setting: under setting [1], 200 to 1000 nM; under setting [2], 200 to 1000 nM.
Take `Cc1cc(Nc2nccc(-c3ccc4[nH]cnc4c3)n2)ccc1F` [Compound 48, 4-(1H-benzo[d]imidazol-5-yl)-N-(4-fluoro-3-methylphenyl)pyrimidin-2-amine]: the IC50 under setting [1] was in the range of 200 to 1000 nM and the IC50 under setting [2] was 200 to 1000 nM.
Turning to `Clc1cc(Cl)cc(Nc2nccc(-c3ccc4[nH]cnc4c3)n2)c1` [Compound 49, 4-(1H-benzo[d]imidazol-5-yl)-N-(3,5-dichlorophenyl)pyrimidin-2-amine], the IC50 runs as follows: under setting [1], 1000 to 10000 nM; under setting [2], 1000 to 10000 nM.
As for `FC(F)(F)c1cccc(Nc2nccc(-c3ccc4[nH]cnc4c3)n2)c1` [Compound 50], the IC50 reads like this: under setting [1], 1000 to 10000 nM; under setting [2], 1000 to 10000 nM.
With `Cc1ccccc1Nc1nccc(-c2ccc3[nH]cnc3c2)n1` [Compound 51, 4-(1H-benzo[d]imidazol-5-yl)-N-(o-tolyl)pyrimidin-2-amine], the IC50 under setting [1] lay within 1000 to 10000 nM and the IC50 under setting [2] was 1000 to 10000 nM.
As to `FC(F)(F)c1cccc(Nc2cc(-c3ccc4[nH]cnc4c3)ccn2)c1` [Compound 52, 4-(1H-benzo[d]imidazol-5-yl)-N-(3-(trifluoromethyl)phenyl)pyridin-2-amine], the concentration for half-maximal inhibition (IC50) is, setting by setting: under setting [1], 1000 to 10000 nM; under setting [2], 1000 to 10000 nM.
Consider `CC(C)(C)c1ccccc1Nc1nccc(-c2ccc3[nH]cnc3c2)n1` [Compound 53, 4-(1H-benzo[d]imidazol-5-yl)-N-(2-(tert-butyl)phenyl)pyrimidin-2-amine], for which the IC50 is, setting by setting: under setting [1], 1000 to 10000 nM; under setting [2], 1000 to 10000 nM.
With `CC(C)c1nnc(Nc2nccc(-c3ccc4[nH]cnc4c3)n2)[nH]1` [Compound 54, 4-(1H-benzo[d]imidazol-5-yl)-N-(5-isopropyl-4H-1,2,4-triazol-3-yl)pyrimidin-2-amine], the IC50 by setting is: under setting [1], 1000 to 10000 nM; under setting [2], 1000 to 10000 nM.
For the molecule `c1ccc2cc(Nc3nccc(-c4ccc5[nH]cnc5c4)n3)ccc2c1` [Compound 55, 4-(1H-benzo[d]imidazol-5-yl)-N-(naphthalen-2-yl)pyrimidin-2-amine], the half-inhibitory concentration (IC50) is 200 to 1000 nM under setting [1] and 200 to 1000 nM under setting [2].
As for `c1cc(-c2ccc3[nH]cnc3c2)nc(Nc2cnoc2)n1` [Compound 56, N-(4-(1H-benzo[d]imidazol-5-yl)pyrimidin-2-yl)isoxazol-4-amine], the IC50 lay in the range of 200 to 1000 nM under setting [1] and 200 to 1000 nM under setting [2].
`c1cc(Nc2nccc(-c3ccc4[nH]cnc4c3)n2)[nH]n1` [Compound 57, 4-(1H-benzo[d]imidazol-5-yl)-N-(1H-pyrazol-5-yl)pyrimidin-2-amine]: the IC50 reads like this: under setting [1], 1000 to 10000 nM; under setting [2], 1000 to 10000 nM.
`FC(F)(F)c1nnc(Nc2nccc(-c3ccc4[nH]cnc4c3)n2)s1` [Compound 58, N-(4-(1H-benzo[d]imidazol-5-yl)pyrimidin-2-yl)-5-(trifluoromethyl)-1,3,4-thiadiazol-2-amine]: the IC50 under setting [1] was in the range of 1000 to 10000 nM and the IC50 under setting [2] was 1000 to 10000 nM.
`Cc1ccc(Nc2nccc(-c3ccc4[nH]cnc4c3)n2)cc1C` [Compound 60, 4-(1H-benzo[d]imidazol-5-yl)-N-(3,4-dimethylphenyl)pyrimidin-2-amine]: the IC50 runs as follows: under setting [1], 200 to 1000 nM; under setting [2], 200 to 1000 nM.
For the molecule `COc1ccccc1Nc1nccc(-c2ccc3[nH]cnc3c2)n1` [Compound 61, 4-(1H-benzo[d]imidazol-5-yl)-N-(2-methoxyphenyl)pyrimidin-2-amine], the half-maximal inhibitory concentration (IC50) reads like this: under setting [1], 1000 to 10000 nM; under setting [2], 1000 to 10000 nM.
On to `FC(F)(F)c1ccccc1Nc1nccc(-c2ccc3[nH]cnc3c2)n1` [Compound 62, 4-(1H-benzo[d]imidazol-5-yl)-N-(2-(trifluoromethyl)phenyl)pyrimidin-2-amine], for which the IC50 by setting is: under setting [1], 1000 to 10000 nM; under setting [2], 1000 to 10000 nM.
